From ChEMBL document CHEMBL3832084, “DailyMed|setid=22191eca-c98d-4a07-844e-11edb0f04b8d | DIVIGEL - estradiol gel|Physicians Total Care, Inc” come the findings set out here.

Common to all, as to format: ADME, organism-based
The test system of one data set is Homo sapiens. Kind of data set: (§1) Pharmacokinetic parameters for Estradiol on day 14, following multiple daily topical administration of Divigel 0.1 %,at steady state. Particulars: in vivo, topical_or_ocular, dosed compound id 17, dosed compound name ESTRADIOL, regimen Multiple daily dose, sampling time1 Day 14 days, study dosing duration 14 days, tissue Plasma. Further details: dose 0.5 g, dose 1 g, dose 0.25 g, route topical.

The nature of data set [1]: as §1. Further details: dose 0.5 g, dose 1 g, dose 0.25 g, route topical. Particulars: human, in vivo, topical or ocular, dose 0.25 g, dosed compound id 17, dosed compound name ESTRADIOL, regimen Multiple daily dose, sampling time1 Day 14 days, study dosing duration 14 days, tissue Plasma.
The nature of data set [2]: Apparent terminal half-life of Estradiol evaluated after topical administration of Divigel. To be noted: human, in vivo, topical or ocular, dosed compound id 17, dosed compound name ESTRADIOL, tissue Plasma, read-out: t1/2(app) (converted).

Usually Tmax stands for the time at which the peak concentration occurs.

For the compound `C[C@]12CC[C@@H]3c4ccc(O)cc4CC[C@H]3[C@@H]1CC[C@@H]2O` [ESTRADIOL], the Cavg with Homo sapiens (dose 0.25 g) came out at 0.0098 ng/mL; with Homo sapiens (dose 0.5 g), 0.021 ng/mL; in the data set on Homo sapiens (dose 1 g) it was 0.0305 ng/mL. In addition, the results for the Tmax (in the data set with Homo sapiens (dose 0.5 g); in the data set with Homo sapiens (dose 1 g); in data set [1]) were 10 h, 8 h and 16 h, respectively. Moreover, the half-life in data set [2] was 10 h.
